The record followed here is patent US5192758A, “2-biphenyl-carbapenem antibacterial agents” (Merck & Co., Inc., priority 1992, dated 1993).

Molecules are shown by their SMILES.

The subject of this series is rat. As to the kind of experiment: Intracisternal assay: convulsant response (seizure potential). Format: in vivo. As to conditions: injection of 20 micro-liters into the intracisternal cavity, amount giving a 50% seizure rate. The source says: Central to the instant invention was the safety benefit realized by the incorporation of the cyano group to the imidazoliummethylbiphenyl moiety of the carbapenem nucleus, as shown in Table II below. […] This difference in activity was statistically significant and allows one to anticipate a much greater CNS safety profile for the compounds depicted.
The figure reported in Table II was the amount of active compound giving a 50% seizure rate in the rat, serving as a model for humans. For each compound, different concentrations were prepared in water and for each concentration, a group of animals were given an injection of 20 micro-liters into the intracisternal cavity. The seizure response of each member of the group was noted by observation.
In the case of `CC(O)C1C(=O)N2C(C(=O)[O-])=C(c3cc(C#N)cc(-c4ccc(C[n+]5ccn(CCO)c5)cc4)c3)CC12` (centres unmarked) [R^c = CH2 CH2 OH, R' = CN], the “CONVULSANT RESPONSE MCG/HEAD-ED50” value turned out to be 100 MCG/HEAD. Turning to `CC(O)C1C(=O)N2C(C(=O)[O-])=C(c3cccc(-c4ccc(C[n+]5ccn(CCO)c5)cc4)c3)CC12` (centres unmarked) [R^c = CH2 CH2 OH, R' = H], the “CONVULSANT RESPONSE MCG/HEAD-ED50” value was found to be 35 MCG/HEAD. As for `CC(O)C1C(=O)N2C(C(=O)[O-])=C(c3cc(Br)cc(-c4ccc(C[n+]5ccn(C)c5)cc4)c3)CC12` (centres unmarked) [R^c = CH3, R' = Br], the “CONVULSANT RESPONSE MCG/HEAD-ED50” value is on record as below 12.5 MCG/HEAD. Regarding `CC(O)C1C(=O)N2C(C(=O)[O-])=C(c3cc(C#N)cc(-c4ccc(C[n+]5ccn(C)c5)cc4)c3)CC12` (centres unmarked) [R^c = CH3, R' = CN], the “CONVULSANT RESPONSE MCG/HEAD-ED50” value turned out to be 100 MCG/HEAD. Take `CC(O)C1C(=O)N2C(C(=O)[O-])=C(c3cccc(-c4ccc(C[n+]5ccn(C)c5)cc4)c3)CC12` (centres unmarked) [R^c = CH3, R' = H]: the “CONVULSANT RESPONSE MCG/HEAD-ED50” value came out at 35 MCG/HEAD.
